Measured values published in patent US20190362816A1, “Systems and Methods for Developing Covalent Inhibitor Libraries for Screening Using Virtual Docking and Experimental Approaches” (Northwestern University, priority 2016, published 2019).

Legend:
cysteine protease papain [1] = biological target: T1, cysteine protease papain (Carica papaya, UniProt P00784); assay: enzyme assay against cysteine protease papain (kinact/Ki); assay type: biochemical; settings: covalent fragments of this work; J Med Chem. 2014, 57(11), 4969-74; read-out: Inhibitors of papain in this work, kinact/Ki
T1 sequence (P00784 134-345): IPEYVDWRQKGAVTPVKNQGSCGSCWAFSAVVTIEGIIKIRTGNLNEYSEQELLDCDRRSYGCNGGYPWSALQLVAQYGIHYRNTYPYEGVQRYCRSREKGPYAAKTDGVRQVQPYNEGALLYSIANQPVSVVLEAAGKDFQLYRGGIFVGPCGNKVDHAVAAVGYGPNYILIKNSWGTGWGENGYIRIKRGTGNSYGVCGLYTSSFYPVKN
Description: In a further embodiment, once the potential covalent inhibitor candidate libraries have been prepared, these candidates can be evaluated by dosing them in a specific assay at a specific concentration versus the receptor to determine the potency of each of the candidates. Depending on the covalent inhibitor, the receptor, and the therapeutic area, the assays will vary. Methods of performing wet chemistry assays are well known. Examples of covalent fragments evaluated in the enzyme assays against cysteine protease papain is shown below (J Med Chem. 2014 Jun. 12; 57(11):4969-74): […]

cysteine protease papain [2] = biological target: T1, cysteine protease papain; settings: J Med Chem. 2014, 57(11), 4969-74; cited from earlier work
[3] = biological target: cysteine protease cathepsin L (Homo sapiens, UniProt P07711); assay: cathepsin L assay using commercially available fluorescent substrates; assay type: biochemical
Chain of cysteine protease cathepsin L (P07711 114-333): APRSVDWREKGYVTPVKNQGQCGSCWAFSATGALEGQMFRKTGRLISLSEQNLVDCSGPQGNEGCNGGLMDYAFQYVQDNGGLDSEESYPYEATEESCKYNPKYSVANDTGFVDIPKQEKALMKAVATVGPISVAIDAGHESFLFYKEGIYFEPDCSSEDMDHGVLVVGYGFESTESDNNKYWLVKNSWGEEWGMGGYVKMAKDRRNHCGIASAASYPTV
Description: Experimental validation of identified inhibitors of cysteine protease cathepsin L. Identified covalent inhibitors (including 53) had been synthesized and tested in cathepsin L assays using commercially available fluorescent substrates for cathepsins (Calbiochem).

[4] = biological target: Cathepsin B cysteine protease (Homo sapiens, UniProt P07858); assay: inhibition of related Cathepsin B cysteine protease; assay type: biochemical; settings: selectivity versus cathepsin L

Row | Compound | kinact/KI (cysteine protease papain [1]) | Known inhibitors of papain, kinact/Ki (cysteine protease papain [2]) | further results
1 | COC(=O)/C=C/CNC(=O)c1cc(-c2ccc(C)cc2)on1 | 1.23 M⁻¹ s⁻¹ |  | 
2 | COC(=O)/C=C/CNC(=O)[C@H](CNC(C)=O)Cc1ccccc1 |  | 0.386 M⁻¹ s⁻¹ | 
3 | COC(=O)/C=C/CNC(=O)[C@@H](CNC(C)=O)CC(C)C |  | 1.102 M⁻¹ s⁻¹ | 
4 | COC(=O)/C=C/CNC(=O)c1ccc(C2CCCO2)s1 (stereo not shown) | 0.037 M⁻¹ s⁻¹ |  | 
5 | CC(Oc1ccc(Br)cc1Br)C(=O)NC/C=C/S(C)(=O)=O (racemic) [Compound 53] |  |  | kinact/KI ([3]; detailed kinetic analysis): 4.1 M⁻¹ s⁻¹; Ki ([3]; fluorescent substrates (Calbiochem)): 134 ± 2 µM; inhibition of Cathepsin B [4]: does not inhibit
6 | COC(=O)/C=C/CNC(=O)c1sc(-c2ccccc2F)nc1C | 0.409 M⁻¹ s⁻¹ |  | 
7 | COC(=O)/C=C/CNC(=O)[C@@H](CNC(C)=O)Cc1ccccc1 |  | 6.575 M⁻¹ s⁻¹ | 
8 | COC(=O)/C=C/CNC(=O)C1CCN(C(=O)CC(C)C)CC1 | 0.461 M⁻¹ s⁻¹ |  | 
